Reference: the kinase profiling compilation of Christmann-Franck et al. (2016)

How the values were obtained:
Assay in all cases: radiometric filter-binding kinase assay
NEK2 (human) = NEK2 (human) (UniProt P51955); conditions: ATP 50 µM
CAMKK1 (human) = CAMKK1 (human) (UniProt Q8N5S9); conditions: ATP 20 µM
EEF2K (human) = EEF2K (human) (UniProt O00418); conditions: ATP 5 µM
PAK6 (human) = PAK6 (human) (UniProt Q9NQU5); conditions: ATP 20 µM
MARK3 (human) = MARK3 (human) (UniProt P27448); conditions: ATP 5 µM
PAK4 (human) = PAK4 (human) (UniProt O96013); conditions: ATP 5 µM
MAPKAPK3 (human) = MAPKAPK3 (human) (UniProt Q16644); conditions: ATP 20 µM
MAPKAPK5 (human) = MAPKAPK5 (human) (UniProt Q8IW41); conditions: ATP 20 µM
DYRK2 (human) = DYRK2 (human) (UniProt Q92630); conditions: ATP 50 µM
CaMK1 (human) = CaMK1 (human) (UniProt Q14012); conditions: ATP 50 µM
PLK1 (human) = PLK1 (human) (UniProt P53350); conditions: ATP 5 µM
PRKAA1 or PRKAA2 (rat) = conditions: accession and sequence are those of the human protein
AURKB (human) = AURKB (human) (UniProt Q96GD4); conditions: ATP 20 µM
NEK6 (human) = NEK6 (human) (UniProt Q9HC98); conditions: ATP 50 µM
MAPKAPK2 (human) = MAPKAPK2 (human) (UniProt P49137); conditions: ATP 20 µM
MAP2K1 (human) = MAP2K1 (human) (UniProt Q02750); conditions: ATP 5 µM
CSK (human) = CSK (human) (UniProt P41240); conditions: ATP 20 µM
RPS6KA5 KD1 KD2 (human) = RPS6KA5 KD1 KD2 (human) (UniProt O75582); conditions: ATP 20 µM
[1] = system: SGK1 (human), O00141 [S422D]; conditions: ATP 20 µM
PIM3 (human) = PIM3 (human) (UniProt Q86V86); conditions: ATP 20 µM
SRPK1 (human) = SRPK1 (human) (UniProt Q96SB4); conditions: ATP 50 µM
[2] = biological target: PRKACA or PRKACB or PRKACG (human) (UniProt P22694+P22612+P17612); conditions: ATP 20 µM
CHEK2 (human) = CHEK2 (human) (UniProt O96017); conditions: ATP 20 µM
MAPK9 (human) = MAPK9 (human) (UniProt P45984); conditions: ATP 20 µM
CSNK1D (human) = CSNK1D (human) (UniProt P48730); conditions: ATP 20 µM
RPS6KA3 KD1 KD2 (human) = RPS6KA3 KD1 KD2 (human) (UniProt P51812); conditions: ATP 50 µM
[3] = system: RPS6KB1 (human), P23443 [T412E]; conditions: ATP 20 µM
IKBKB (human) = IKBKB (human) (UniProt O14920); conditions: ATP 5 µM
STK3 (human) = STK3 (human) (UniProt Q13188); conditions: ATP 20 µM

CHEK2 (human), sequence (O96017 whole entry, looked up): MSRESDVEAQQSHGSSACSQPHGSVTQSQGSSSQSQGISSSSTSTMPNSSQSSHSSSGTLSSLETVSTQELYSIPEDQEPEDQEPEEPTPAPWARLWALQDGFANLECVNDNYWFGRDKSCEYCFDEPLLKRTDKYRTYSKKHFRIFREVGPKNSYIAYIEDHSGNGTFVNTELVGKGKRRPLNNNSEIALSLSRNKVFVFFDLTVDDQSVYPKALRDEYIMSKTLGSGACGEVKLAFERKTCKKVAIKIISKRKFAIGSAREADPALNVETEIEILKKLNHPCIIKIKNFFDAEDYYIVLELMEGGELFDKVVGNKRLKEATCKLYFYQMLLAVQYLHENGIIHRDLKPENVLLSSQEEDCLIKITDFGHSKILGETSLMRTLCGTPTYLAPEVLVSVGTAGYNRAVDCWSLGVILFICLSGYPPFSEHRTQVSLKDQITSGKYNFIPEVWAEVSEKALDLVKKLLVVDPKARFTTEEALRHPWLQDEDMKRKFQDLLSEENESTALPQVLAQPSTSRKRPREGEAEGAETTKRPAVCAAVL
NEK6 (human), sequence (Q9HC98 whole entry, looked up): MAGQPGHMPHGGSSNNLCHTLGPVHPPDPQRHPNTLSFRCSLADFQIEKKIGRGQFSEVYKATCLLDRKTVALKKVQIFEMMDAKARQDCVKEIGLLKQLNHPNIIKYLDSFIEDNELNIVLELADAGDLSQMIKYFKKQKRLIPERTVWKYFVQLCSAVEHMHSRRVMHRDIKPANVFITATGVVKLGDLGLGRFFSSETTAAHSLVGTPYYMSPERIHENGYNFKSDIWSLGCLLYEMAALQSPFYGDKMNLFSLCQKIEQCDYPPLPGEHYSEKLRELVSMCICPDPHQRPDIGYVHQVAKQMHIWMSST
CSK (human), sequence (P41240 whole entry, looked up): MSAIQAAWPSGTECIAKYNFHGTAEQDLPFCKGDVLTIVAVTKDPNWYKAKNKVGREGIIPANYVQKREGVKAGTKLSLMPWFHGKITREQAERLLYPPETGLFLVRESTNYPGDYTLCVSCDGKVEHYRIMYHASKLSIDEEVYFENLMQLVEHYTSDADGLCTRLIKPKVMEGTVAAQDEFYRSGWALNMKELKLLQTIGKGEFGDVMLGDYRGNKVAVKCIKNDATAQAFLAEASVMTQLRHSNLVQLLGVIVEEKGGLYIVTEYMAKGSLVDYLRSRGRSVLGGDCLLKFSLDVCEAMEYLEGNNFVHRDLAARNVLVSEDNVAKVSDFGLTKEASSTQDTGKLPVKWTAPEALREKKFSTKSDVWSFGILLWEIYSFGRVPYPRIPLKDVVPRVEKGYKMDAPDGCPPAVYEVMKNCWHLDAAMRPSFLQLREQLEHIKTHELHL
NEK2 (human), sequence (P51955 whole entry, looked up): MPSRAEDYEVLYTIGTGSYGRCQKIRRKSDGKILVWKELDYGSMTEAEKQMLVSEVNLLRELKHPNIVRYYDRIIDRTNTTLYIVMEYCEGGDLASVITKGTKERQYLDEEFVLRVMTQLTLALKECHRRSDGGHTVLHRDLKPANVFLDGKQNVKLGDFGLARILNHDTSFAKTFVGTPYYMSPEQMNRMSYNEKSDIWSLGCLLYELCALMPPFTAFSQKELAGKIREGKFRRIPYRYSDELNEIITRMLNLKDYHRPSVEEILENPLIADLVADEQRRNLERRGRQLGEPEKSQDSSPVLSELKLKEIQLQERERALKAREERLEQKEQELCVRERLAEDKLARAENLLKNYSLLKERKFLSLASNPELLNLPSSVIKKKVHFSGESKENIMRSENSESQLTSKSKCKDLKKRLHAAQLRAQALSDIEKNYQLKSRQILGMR
AURKB (human), sequence (Q96GD4 whole entry, looked up): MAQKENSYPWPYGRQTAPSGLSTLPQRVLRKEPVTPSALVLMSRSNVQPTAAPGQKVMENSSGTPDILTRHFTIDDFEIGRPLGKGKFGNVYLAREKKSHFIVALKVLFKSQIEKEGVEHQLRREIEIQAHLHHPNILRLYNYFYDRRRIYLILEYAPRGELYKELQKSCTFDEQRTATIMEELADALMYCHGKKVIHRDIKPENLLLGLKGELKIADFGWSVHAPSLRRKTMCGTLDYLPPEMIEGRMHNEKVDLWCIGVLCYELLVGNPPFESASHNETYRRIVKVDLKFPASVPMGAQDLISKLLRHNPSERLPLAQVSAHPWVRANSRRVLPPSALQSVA
EEF2K (human), sequence (O00418 whole entry, looked up): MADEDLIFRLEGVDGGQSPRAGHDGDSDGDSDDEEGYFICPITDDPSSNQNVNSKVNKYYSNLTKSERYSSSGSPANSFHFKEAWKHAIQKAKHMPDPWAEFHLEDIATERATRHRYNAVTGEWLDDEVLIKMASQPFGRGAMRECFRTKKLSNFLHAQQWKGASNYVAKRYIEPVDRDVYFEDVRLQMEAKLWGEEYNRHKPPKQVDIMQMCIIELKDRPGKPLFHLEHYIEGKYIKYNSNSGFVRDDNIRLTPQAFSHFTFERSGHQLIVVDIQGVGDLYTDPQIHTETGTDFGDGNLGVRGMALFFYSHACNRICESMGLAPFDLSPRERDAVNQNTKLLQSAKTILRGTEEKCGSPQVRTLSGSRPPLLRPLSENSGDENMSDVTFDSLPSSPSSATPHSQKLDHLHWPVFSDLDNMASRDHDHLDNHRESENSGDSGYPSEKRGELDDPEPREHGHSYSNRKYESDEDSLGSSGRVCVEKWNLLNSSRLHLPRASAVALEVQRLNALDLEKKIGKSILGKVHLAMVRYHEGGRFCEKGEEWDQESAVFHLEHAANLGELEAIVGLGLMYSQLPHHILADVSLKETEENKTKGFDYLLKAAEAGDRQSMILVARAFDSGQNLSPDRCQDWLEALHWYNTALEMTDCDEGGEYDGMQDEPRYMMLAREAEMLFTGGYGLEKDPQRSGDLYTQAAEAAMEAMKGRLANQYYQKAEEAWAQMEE
MAPKAPK2 (human), sequence (P49137 whole entry, looked up): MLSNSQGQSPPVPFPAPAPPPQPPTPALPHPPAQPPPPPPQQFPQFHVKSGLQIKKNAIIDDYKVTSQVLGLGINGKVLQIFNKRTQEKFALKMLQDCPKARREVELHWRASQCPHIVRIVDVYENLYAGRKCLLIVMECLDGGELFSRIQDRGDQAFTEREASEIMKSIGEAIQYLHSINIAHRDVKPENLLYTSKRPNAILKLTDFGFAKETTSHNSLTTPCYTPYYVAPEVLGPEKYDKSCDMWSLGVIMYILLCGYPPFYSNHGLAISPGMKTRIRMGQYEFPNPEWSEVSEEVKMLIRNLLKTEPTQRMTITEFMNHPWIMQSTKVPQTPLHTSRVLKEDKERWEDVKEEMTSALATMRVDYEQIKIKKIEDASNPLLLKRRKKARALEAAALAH
PAK6 (human), sequence (Q9NQU5 whole entry, looked up): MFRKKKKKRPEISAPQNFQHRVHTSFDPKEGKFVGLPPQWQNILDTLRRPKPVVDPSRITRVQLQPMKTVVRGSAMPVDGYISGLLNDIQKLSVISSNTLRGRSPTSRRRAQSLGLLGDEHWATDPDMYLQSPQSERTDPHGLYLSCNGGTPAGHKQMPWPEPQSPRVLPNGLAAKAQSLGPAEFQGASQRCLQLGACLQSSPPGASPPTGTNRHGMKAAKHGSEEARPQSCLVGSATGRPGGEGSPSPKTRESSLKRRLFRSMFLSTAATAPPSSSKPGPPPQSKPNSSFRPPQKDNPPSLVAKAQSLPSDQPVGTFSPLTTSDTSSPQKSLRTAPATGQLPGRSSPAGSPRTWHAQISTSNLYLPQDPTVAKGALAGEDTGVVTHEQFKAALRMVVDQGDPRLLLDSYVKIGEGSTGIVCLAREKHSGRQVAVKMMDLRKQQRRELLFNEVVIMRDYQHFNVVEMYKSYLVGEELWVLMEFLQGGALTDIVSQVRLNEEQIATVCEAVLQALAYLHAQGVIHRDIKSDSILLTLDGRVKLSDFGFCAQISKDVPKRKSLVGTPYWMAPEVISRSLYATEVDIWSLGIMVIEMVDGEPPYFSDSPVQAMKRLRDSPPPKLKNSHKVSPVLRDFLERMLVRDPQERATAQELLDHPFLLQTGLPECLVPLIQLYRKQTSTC
CSNK1D (human), sequence (P48730 whole entry, looked up): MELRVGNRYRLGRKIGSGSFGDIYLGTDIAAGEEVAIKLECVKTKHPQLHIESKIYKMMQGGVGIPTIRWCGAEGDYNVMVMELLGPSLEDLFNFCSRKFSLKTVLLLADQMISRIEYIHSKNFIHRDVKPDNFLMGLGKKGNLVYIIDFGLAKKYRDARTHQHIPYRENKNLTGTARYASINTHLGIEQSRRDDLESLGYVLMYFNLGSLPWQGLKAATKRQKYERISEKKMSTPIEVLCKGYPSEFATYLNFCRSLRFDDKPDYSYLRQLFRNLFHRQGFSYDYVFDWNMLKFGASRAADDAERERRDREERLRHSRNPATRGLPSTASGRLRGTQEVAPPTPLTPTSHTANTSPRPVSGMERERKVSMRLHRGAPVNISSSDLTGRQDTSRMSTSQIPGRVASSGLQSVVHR

`O=C1c2ccccc2-c2n[nH]c3cccc1c23` showed a residual activity (NEK2 (human); compound 1.0 µM) of 78%, a residual activity (CAMKK1 (human); compound 1.0 µM) of 68% and a residual activity (EEF2K (human); compound 1.0 µM) of 118%. It also gave a residual activity (PAK6 (human); compound 1.0 µM) of 72%, a residual activity (MARK3 (human); compound 1.0 µM) of 49% and a residual activity (PAK4 (human); compound 1.0 µM) of 60%. The residual activity (MAPKAPK3 (human); compound 1.0 µM) was 103%, the residual activity (MAPKAPK5 (human); compound 1.0 µM) was 58% and the residual activity (DYRK2 (human); compound 1.0 µM) was 19%. It also gave a residual activity (CaMK1 (human); compound 1.0 µM) of 73%, a residual activity (PLK1 (human); compound 1.0 µM) of 80% and a residual activity (PRKAA1 or PRKAA2 (rat); compound 1.0 µM) of 44%. For the same compound, the residual activity (AURKB (human); compound 1.0 µM) was 15%, the residual activity (NEK6 (human); compound 1.0 µM) was 102% and the residual activity (MAPKAPK2 (human); compound 1.0 µM) was 102%. It also gave a residual activity (MAP2K1 (human); compound 1.0 µM) of 58%, a residual activity (CSK (human); compound 1.0 µM) of 65% and a residual activity (RPS6KA5 KD1 KD2 (human); compound 1.0 µM) of 72%. For the same compound, the residual activity ([1]; compound 1.0 µM) was 28%, the residual activity (PIM3 (human); compound 1.0 µM) was 17% and the residual activity (SRPK1 (human); compound 1.0 µM) was 84%. It also gave a residual activity ([2]; compound 1.0 µM) of 80%, a residual activity (CHEK2 (human); compound 1.0 µM) of 44% and a residual activity (MAPK9 (human); compound 1.0 µM) of 24%. For the same compound, the residual activity (CSNK1D (human); compound 1.0 µM) was 15%, the residual activity (RPS6KA3 KD1 KD2 (human); compound 1.0 µM) was 70% and the residual activity ([3]; compound 1.0 µM) was 85%. For the same compound, the residual activity (IKBKB (human); compound 1.0 µM) was 49% and the residual activity (STK3 (human); compound 1.0 µM) was 31%.
Compound `N#CC(=C(\N)Sc1ccccc1N)/C(C#N)=C(/N)Sc1ccccc1N` has a residual activity (NEK2 (human); compound 10.0 µM) of 89%, a residual activity (EEF2K (human); compound 10.0 µM) of 116% and a residual activity (MARK3 (human); compound 10.0 µM) of 95%. For the same compound, the residual activity (PAK4 (human); compound 10.0 µM) was 94%, the residual activity (MAPKAPK5 (human); compound 10.0 µM) was 92% and the residual activity (DYRK2 (human); compound 10.0 µM) was 84%. For the same compound, the residual activity (CaMK1 (human); compound 10.0 µM) was 69%, the residual activity (PLK1 (human); compound 10.0 µM) was 92% and the residual activity (AURKB (human); compound 10.0 µM) was 86%. For the same compound, the residual activity (NEK6 (human); compound 10.0 µM) was 90%, the residual activity (MAPKAPK2 (human); compound 10.0 µM) was 95% and the residual activity (RPS6KA5 KD1 KD2 (human); compound 10.0 µM) was 85%. It also gave a residual activity ([1]; compound 10.0 µM) of 72%, a residual activity (PIM3 (human); compound 10.0 µM) of 63% and a residual activity (SRPK1 (human); compound 10.0 µM) of 102%. For the same compound, the residual activity ([2]; compound 10.0 µM) was 93%, the residual activity (CHEK2 (human); compound 10.0 µM) was 98% and the residual activity (MAPK9 (human); compound 10.0 µM) was 73%. For the same compound, the residual activity (RPS6KA3 KD1 KD2 (human); compound 10.0 µM) was 81%, the residual activity ([3]; compound 10.0 µM) was 93% and the residual activity (IKBKB (human); compound 10.0 µM) was 118%. The residual activity (STK3 (human); compound 10.0 µM) was 96%.
For `CN[C@@H]1C[C@@H]2O[C@@](C)([C@@H]1OC)n1c3ccccc3c3c4c(c5c6ccccc6n2c5c31)C(=O)N[C@@H]4O`, the residual activity (NEK2 (human); compound 0.01 µM) was 85%, the residual activity (CAMKK1 (human); compound 0.01 µM) was 58% and the residual activity (EEF2K (human); compound 0.01 µM) was 105%. For the same compound, the residual activity (PAK6 (human); compound 0.01 µM) was 35%, the residual activity (MARK3 (human); compound 0.01 µM) was 6% and the residual activity (PAK4 (human); compound 0.01 µM) was 33%. The residual activity (MAPKAPK3 (human); compound 0.01 µM) was 107%, the residual activity (MAPKAPK5 (human); compound 0.01 µM) was 83% and the residual activity (DYRK2 (human); compound 0.01 µM) was 92%. For the same compound, the residual activity (CaMK1 (human); compound 0.01 µM) was 86%, the residual activity (PLK1 (human); compound 0.01 µM) was 76% and the residual activity (PRKAA1 or PRKAA2 (rat); compound 0.01 µM) was 9%. For the same compound, the residual activity (AURKB (human); compound 0.01 µM) was 59%, the residual activity (NEK6 (human); compound 0.01 µM) was 104% and the residual activity (MAPKAPK2 (human); compound 0.01 µM) was 75%. It also gave a residual activity (MAP2K1 (human); compound 0.01 µM) of 75%, a residual activity (CSK (human); compound 0.01 µM) of 80% and a residual activity (RPS6KA5 KD1 KD2 (human); compound 0.01 µM) of 68%. The residual activity ([1]; compound 0.01 µM) was 83%, the residual activity (PIM3 (human); compound 0.01 µM) was 8% and the residual activity ([2]; compound 0.01 µM) was 63%. It also gave a residual activity (CHEK2 (human); compound 0.01 µM) of 96%, a residual activity (MAPK9 (human); compound 0.01 µM) of 92% and a residual activity (CSNK1D (human); compound 0.01 µM) of 96%. It also gave a residual activity (RPS6KA3 KD1 KD2 (human); compound 0.01 µM) of 29%, a residual activity ([3]; compound 0.01 µM) of 96% and a residual activity (IKBKB (human); compound 0.01 µM) of 86%. The residual activity (STK3 (human); compound 0.01 µM) was 2%.
With `CO[C@H]1CC2CC[C@@H](C)[C@@](O)(O2)C(=O)C(=O)N2CCCC[C@H]2C(=O)OC([C@H](C)C[C@@H]2CC[C@@H](O)[C@H](OC)C2)CC(=O)[C@H](C)/C=C(\C)[C@@H](O)[C@@H](OC)C(=O)[C@H](C)C[C@H](C)/C=C/C=C/C=C/1C` (stereo partly drawn) the residual activity (NEK2 (human); compound 1.0 µM) was 82%, the residual activity (CAMKK1 (human); compound 1.0 µM) was 80% and the residual activity (EEF2K (human); compound 1.0 µM) was 94%. It also gave a residual activity (PAK6 (human); compound 1.0 µM) of 89%, a residual activity (MARK3 (human); compound 1.0 µM) of 88% and a residual activity (PAK4 (human); compound 1.0 µM) of 81%. The residual activity (MAPKAPK3 (human); compound 1.0 µM) was 104%, the residual activity (MAPKAPK5 (human); compound 1.0 µM) was 91% and the residual activity (DYRK2 (human); compound 1.0 µM) was 84%. For the same compound, the residual activity (CaMK1 (human); compound 1.0 µM) was 97%, the residual activity (PLK1 (human); compound 1.0 µM) was 78% and the residual activity (PRKAA1 or PRKAA2 (rat); compound 1.0 µM) was 87%. The residual activity (AURKB (human); compound 1.0 µM) was 86%, the residual activity (NEK6 (human); compound 1.0 µM) was 95% and the residual activity (MAPKAPK2 (human); compound 1.0 µM) was 108%. The residual activity (MAP2K1 (human); compound 1.0 µM) was 93%, the residual activity (CSK (human); compound 1.0 µM) was 83% and the residual activity (RPS6KA5 KD1 KD2 (human); compound 1.0 µM) was 86%. For the same compound, the residual activity ([1]; compound 1.0 µM) was 93%, the residual activity (PIM3 (human); compound 1.0 µM) was 88% and the residual activity (SRPK1 (human); compound 1.0 µM) was 84%. It also gave a residual activity ([2]; compound 1.0 µM) of 77%, a residual activity (CHEK2 (human); compound 1.0 µM) of 92% and a residual activity (MAPK9 (human); compound 1.0 µM) of 81%. The residual activity (CSNK1D (human); compound 1.0 µM) was 88%, the residual activity (RPS6KA3 KD1 KD2 (human); compound 1.0 µM) was 97% and the residual activity ([3]; compound 1.0 µM) was 106%. It also gave a residual activity (IKBKB (human); compound 1.0 µM) of 82% and a residual activity (STK3 (human); compound 1.0 µM) of 90%.
